Measured values as given in ChEMBL document CHEMBL4028849 (J Med Chem, 2017).

Assay: Terminal half life in Sprague-Dawley rat at 1 mg/kg, iv
Assay type: ADME, organism-based
Conditions: in vivo, read-out: beta t1/2 (converted)

Compound `COc1ccc2c(c1)NC(=O)CN2c1nc(C)nc2ccccc12` has a half-life of 52 h.

Assay: n-Octanol-water partition co-efficient, log P of the compound at 1 mg/ml by HPLC analysis
Assay type: physicochemical
Conditions: not given

In order of falling logP:
1. CCCCNc1nc(N2CC(=O)Nc3cc(OC)ccc32)c2ccccc2n1  3.91
2. COc1ccc2c(c1)NC(=O)CN2c1nc(Cl)nc2ccccc12  2.94
3. CNc1nc(N2CC(=O)Nc3cc(OC)ccc32)c2ccccc2n1  2.77
4. COc1ccc2c(c1)NC(=O)CN2c1nc(COC(C)=O)nc2ccccc12  2.7
5. COc1ccc2c(c1)NC(=O)CN2c1nc(NCCCO)nc2ccccc12  2.6
6. CCNc1nc(N2CC(=O)Nc3cc(OC)ccc32)c2ccccc2n1  2.56
7. COc1ccc2c(c1)NC(=O)CN2c1nc(N2CCC(F)(F)C2)nc2ccccc12  2.48
8. COc1ccc2c(c1)NC(=O)CN2c1nc(NC2CCCC2)nc2ccccc12  2.33
9. COc1ccc2c(c1)NC(=O)CN2c1nc(NC2CC2)nc2ccccc12  2.26
10. COc1ccc2c(c1)NC(=O)CN2c1nc(N2CC(F)(F)C2)nc2ccccc12  2.14
11. COc1ccc2c(c1)NC(=O)CN2c1nc(CO)nc2ccccc12  2.14
